Results: US12396995B2, “Substituted 4-aminoisoindoline-1,3-dione compounds and second active agents for combined use” (Celgene Corporation, priority 2019, dated 2025)

What was measured:
[1] = test system: WSU-DLCL2 DLBCL xenograft tumors; assay: WSU-DLCL2 (DLBCL) xenograft model, Compound 1 alone and with tazemetostat; format: in vivo, female SCID mice
Protocol: Anti-tumor activity of Compound 1 alone and in combination with tazemetostat was studied in WSU-DLCL2 (DLBCL) xenograft model. Compound 1 (1 mg/kg) was administered once daily for 5 consecutive days followed by 2 days off (5 D on/2 D off) and tazemetostat (200 mg/kg) was administered twice daily (BID).
Methods: Xenograft study was conducted with female SCID mice bearing WSU-DLCL2 DLBCL xenograft tumors. Female SCID mice were inoculated subcutaneously with WSU-DLCL2 cells in the flank region above the right hind leg. Following inoculation of animals, the tumors were allowed to grow to approximately 200 mm^3 prior to randomization. On day 14 following tumor cell inoculation, the mice bearing WSU-DLCL2 tumors ranging between 150 and 250 mm^3 were pooled together and randomized into various treatment groups. Compound 1 was formulated in 0.5% Methyl Cellulose, 0.25% Tween 80 and 50 mM Citrate pH 3 in water. Tazemetostat was formulated in CMC-Tween. Compound 1 (1 mg/kg) was orally administered with three cycles of once daily for 5 consecutive days followed by 2 days off starting from day 14 after tumor cell inoculation. Tazemetostat 200 mg/kg) was orally administered twice day (BID) for three weeks. In combination group the animals received Compound 1 (1 mg/kg/5 D on/2 D off) and tazemetostat (200 mg/kg, BID) simultaneously for three weeks starting from day 14 after tumor cell inoculation. Tumors were measured twice a week using calipers and tumor volumes were calculated using the formula of W^2×L/2. Statistical analysis was performed using a one-way or 2-way analysis of variance (ANOVA). Synergy calculations were performed using fractional product method.

[2] = test system: primary CLL cells (CD5+CD19+ tumor cells); assay: Ex vivo apoptosis of B-cell CLL patient cells, Compound 1 with venetoclax (flow cytometry, Caspase 3); format: cell-based, human; conditions: 144 hrs
Protocol: CLL is characterized by accumulation of clonal CD5^+CD19^+ lymphocytes resistant to apoptosis. Venetoclax blocks the anti-apoptotic B-cell lymphoma-2 (Bcl-2) protein, leading to programmed cell death of CLL cells and is currently being tested in the clinic with different combinations for relapsed refractory patients. The effect of Compound 1 in combination with venetoclax on the proliferation and survival of CLL B cells was assessed utilizing an ex vivo model where primary CLL cells from patient-derived blood were stimulated to proliferate with 10% fetal bovine serum (FBS), 5 ng/mL recombinant human interleukine-4 (rh IL-4), 10 ng/mL recombinant human interleukine-10 (rh IL-10) and co-cultured with fibroblast expressing surface CD154 (CD40L) in a 96 well plate format.
Peripheral blood mononuclear cells (PBMCs) from CLL patients (Table 6) containing 52%-86% of CD5^+CD19^+ tumor cells were cultured at a density of 0.06-0.1×10^6 cells/well on a monolayer of CD154-expressing fibroblasts at a density of 0.09×10^6 cells/well in 96-well plates in RPMI 1640 medium supplemented with 10% FBS, 5 ng/mL rh IL-4 and 10 ng/mL rh IL-10 and were simultaneously treated with vehicle control (0.1% DMSO) or increasing concentrations of Compound 1 ranging from 0.0001 to 1 μM and venetoclax at concentrations ranging from 0.001 to 10 μM across all the different concentrations of Compound 1. After 144 hrs of treatment with both the agents, flow cytometric analysis was used to determine the number of tumor cells that were viable or apoptotic.
(§1) After 6 days of treatment, the tumor cell count was assessed by staining the patient PBMCs in each condition with tumor cell surface markers CD5 & CD19 along with Live/Dead fixable dye to exclude the dead cells and followed by intracellular staining for Caspase 3 antibody to identify the apoptotic cells and was measured by flow cytometry (Attune NxT, Thermo Fisher). The live tumor cell count for each condition was calculated by normalizing to the precision count beads added to each sample.
For apoptosis analysis, the percentage of apoptosis combining both “early” (Caspase 3 positive and Live-Dead fixable dye negative) and “late” apoptosis (Caspase 3 and Live-Dead fixable dye positive) cell gates subtracting the baseline DMSO value was graphed using GraphPad Prism 8.0.0.0. The Ymax (maximal percentage of apoptosis achieved) values from apoptosis curves were calculated by performing a nonlinear regression curve fitting using log(agonist) vs. normalized response—Variable slope analysis and identifying the maximum value on GraphPad Prism 8.0.0 (Table 7).

[3] = test system: primary CLL cells (CD5+CD19+ tumor cells); assay: Ex vivo apoptosis of B-cell CLL patient cells, Compound 1 with ibrutinib (flow cytometry, Caspase 3); format: cell-based, human; conditions: 144 hrs
Protocol: After 144 hrs of treatment with both the agents, flow cytometric analysis was used to determine the number of tumor cells that were viable or apoptotic.
as §1, with “The” for “After 6 days of treatment, the”, “Caspase3” for “Caspase 3”
For apoptosis analysis, the percentage of apoptosis combining both “early” (Caspase 3 positive and Live-Dead fixable dye negative) and “late” apoptosis (Caspase 3 and Live-Dead fixable dye positive) cell gates subtracting the baseline DMSO value was graphed using GraphPad Prism 8.0.0.0. The Ymax (maximal percentage of apoptosis achieved) values from apoptosis curves were calculated by performing a nonlinear regression curve fitting using log(agonist) vs. normalized response—Variable slope analysis and identifying the maximum value on GraphPad Prism 8.0.0 (Table 9).

[4] = DMSO + Cpd1 DRC (no venetoclax)

For `O=C1CC[C@H](N2C(=O)c3cccc(NCc4ccc(CN5CC(N6CCOCC6)C5)cc4F)c3C2=O)C(=O)N1` [Compound 1, (S)-2-(2,6-dioxopiperidin-3-yl)-4-((2-fluoro-4-((3-morpholinoazetidin-1-yl)methyl)benzyl)amino)isoindoline-1,3-dione], which “combination antitumor activity (fractional product method)” value ([1]; Compound 1 1 mg/kg and tazemetostat 200 mg/kg) is on record?
Its value is “synergistic”.

What about the “tumor volume reduction compared to vehicle control” value ([1]; Compound 1 1 mg/kg in combination with tazemetostat 200 mg/kg) of the same molecule?
Its value is 93.7%.

And the “inhibition of tumor growth” value ([1]; single agent Compound 1 1 mg/kg oral, 5 D on/2 D off, three cycles)?
The value was −45.6%.

What about the “Ymax of Pt 11 (%), maximal apoptosis” value [2, 4] of the same molecule?
The value was 12.42%.

And the “Ymax of Pt 12 (%), maximal apoptosis” value [2, 4]?
The value was 14.64%.

And the “Ymax of Pt 13 (%), maximal apoptosis” value [2, 4]?
Its value is 27.00%.

What about the “Ymax of Pt 14 (%), maximal apoptosis” value [2, 4] of the same molecule?
Its value is 13.32%.

And the “Ymax of Pt 11 (%), maximal apoptosis” value ([2]; venetoclax 0.001 uM + Cpd1 DRC)?
The value was 17.79%.

And the “Ymax of Pt 12 (%), maximal apoptosis” value ([2]; venetoclax 0.001 uM + Cpd1 DRC)?
Its value is 24.85%.

What about the “Ymax of Pt 13 (%), maximal apoptosis” value ([2]; venetoclax 0.001 uM + Cpd1 DRC) of the same molecule?
The value was 33.09%.

And the “Ymax of Pt 14 (%), maximal apoptosis” value ([2]; venetoclax 0.001 uM + Cpd1 DRC)?
Its value is 17.39%.

And the “Ymax of Pt 11 (%), maximal apoptosis” value ([2]; venetoclax 0.01 uM + Cpd1 DRC)?
The value was 38.49%.

What about the “Ymax of Pt 12 (%), maximal apoptosis” value ([2]; venetoclax 0.01 uM + Cpd1 DRC) of the same molecule?
The value was 34.24%.

And the “Ymax of Pt 13 (%), maximal apoptosis” value ([2]; venetoclax 0.01 uM + Cpd1 DRC)?
Its value is 49.03%.

What about the “Ymax of Pt 14 (%), maximal apoptosis” value ([2]; venetoclax 0.01 uM + Cpd1 DRC) of the same molecule?
The value was 27.33%.

And the “Ymax of Pt 11 (%), maximal apoptosis” value ([2]; venetoclax 0.1 uM + Cpd1 DRC)?
Its value is 58.37%.

And the “Ymax of Pt 12 (%), maximal apoptosis” value ([2]; venetoclax 0.1 uM + Cpd1 DRC)?
The value was 45.34%.

What about the “Ymax of Pt 13 (%), maximal apoptosis” value ([2]; venetoclax 0.1 uM + Cpd1 DRC) of the same molecule?
The value was 52.16%.

What about the “Ymax of Pt 14 (%), maximal apoptosis” value ([2]; venetoclax 0.1 uM + Cpd1 DRC) of the same molecule?
Its value is 31.44%.

What about the “Ymax of Pt 11 (%), maximal apoptosis” value ([2]; venetoclax 1 uM + Cpd1 DRC) of the same molecule?
Its value is 66.55%.

What about the “Ymax of Pt 12 (%), maximal apoptosis” value ([2]; venetoclax 1 uM + Cpd1 DRC) of the same molecule?
The value was 48.71%.

And the “Ymax of Pt 13 (%), maximal apoptosis” value ([2]; venetoclax 1 uM + Cpd1 DRC)?
The value was 55.23%.

And the “Ymax of Pt 14 (%), maximal apoptosis” value ([2]; venetoclax 1 uM + Cpd1 DRC)?
The value was 40.57%.

What about the “Ymax of Pt 11 (%), maximal apoptosis” value ([2]; venetoclax 10 uM + Cpd1 DRC) of the same molecule?
Its value is 72.34%.

And the “Ymax of Pt 12 (%), maximal apoptosis” value ([2]; venetoclax 10 uM + Cpd1 DRC)?
Its value is 54.25%.

And the “Ymax of Pt 13 (%), maximal apoptosis” value ([2]; venetoclax 10 uM + Cpd1 DRC)?
The value was 60.52%.

And the “Ymax of Pt 14 (%), maximal apoptosis” value ([2]; venetoclax 10 uM + Cpd1 DRC)?
Its value is 45.98%.

What about the “Ymax of Pt 11 (%), maximal apoptosis” value ([3]; DMSO + Cpd1 DRC (no ibrutinib)) of the same molecule?
Its value is 14.40%.

What about the “Ymax of Pt 12 (%), maximal apoptosis” value ([3]; DMSO + Cpd1 DRC (no ibrutinib)) of the same molecule?
Its value is 14.19%.

And the “Ymax of Pt 13 (%), maximal apoptosis” value ([3]; DMSO + Cpd1 DRC (no ibrutinib))?
Its value is 36.93%.

What about the “Ymax of Pt 14 (%), maximal apoptosis” value ([3]; DMSO + Cpd1 DRC (no ibrutinib)) of the same molecule?
Its value is 17.21%.

What about the “Ymax of Pt 11 (%), maximal apoptosis” value ([3]; ibrutinib 0.001 uM + Cpd1 DRC) of the same molecule?
The value was 19.80%.

And the “Ymax of Pt 12 (%), maximal apoptosis” value ([3]; ibrutinib 0.001 uM + Cpd1 DRC)?
The value was 15.67%.

And the “Ymax of Pt 13 (%), maximal apoptosis” value ([3]; ibrutinib 0.001 uM + Cpd1 DRC)?
Its value is 26.75%.

And the “Ymax of Pt 14 (%), maximal apoptosis” value ([3]; ibrutinib 0.001 uM + Cpd1 DRC)?
The value was 17.87%.

What about the “Ymax of Pt 11 (%), maximal apoptosis” value ([3]; ibrutinib 0.01 uM + Cpd1 DRC) of the same molecule?
The value was 18.66%.

And the “Ymax of Pt 12 (%), maximal apoptosis” value ([3]; ibrutinib 0.01 uM + Cpd1 DRC)?
Its value is 13.66%.

What about the “Ymax of Pt 13 (%), maximal apoptosis” value ([3]; ibrutinib 0.01 uM + Cpd1 DRC) of the same molecule?
The value was 30.53%.

And the “Ymax of Pt 14 (%), maximal apoptosis” value ([3]; ibrutinib 0.01 uM + Cpd1 DRC)?
Its value is 18.30%.

And the “Ymax of Pt 11 (%), maximal apoptosis” value ([3]; ibrutinib 0.1 uM + Cpd1 DRC)?
The value was 12.33%.

What about the “Ymax of Pt 12 (%), maximal apoptosis” value ([3]; ibrutinib 0.1 uM + Cpd1 DRC) of the same molecule?
Its value is 17.47%.

And the “Ymax of Pt 13 (%), maximal apoptosis” value ([3]; ibrutinib 0.1 uM + Cpd1 DRC)?
Its value is 32.49%.

What about the “Ymax of Pt 14 (%), maximal apoptosis” value ([3]; ibrutinib 0.1 uM + Cpd1 DRC) of the same molecule?
The value was 13.59%.

And the “Ymax of Pt 11 (%), maximal apoptosis” value ([3]; ibrutinib 1 uM + Cpd1 DRC)?
Its value is 19.73%.

What about the “Ymax of Pt 12 (%), maximal apoptosis” value ([3]; ibrutinib 1 uM + Cpd1 DRC) of the same molecule?
The value was 22.48%.

And the “Ymax of Pt 13 (%), maximal apoptosis” value ([3]; ibrutinib 1 uM + Cpd1 DRC)?
The value was 29.70%.

What about the “Ymax of Pt 14 (%), maximal apoptosis” value ([3]; ibrutinib 1 uM + Cpd1 DRC) of the same molecule?
Its value is 17.65%.

And the “Ymax of Pt 11 (%), maximal apoptosis” value ([3]; ibrutinib 10 uM + Cpd1 DRC)?
The value was 29.73%.

And the “Ymax of Pt 12 (%), maximal apoptosis” value ([3]; ibrutinib 10 uM + Cpd1 DRC)?
The value was 24.18%.

What about the “Ymax of Pt 13 (%), maximal apoptosis” value ([3]; ibrutinib 10 uM + Cpd1 DRC) of the same molecule?
Its value is 35.37%.

And the “Ymax of Pt 14 (%), maximal apoptosis” value ([3]; ibrutinib 10 uM + Cpd1 DRC)?
The value was 19.33%.
